Laboratory results reported in patent US20260041095A1, “A PRESERVATION METHOD” (AnalytiCon Discovery - Zweigniederlassung der BRAIN Biotech …, priority 2022, published 2026).
≈ marks a conversion by molar mass, not a printed value.

Columns and labels:
Type in all cases: cell-based
Byssochlamys nivea SUN10 = assay: Antimicrobial activity (MIC), Byssochlamys nivea SUN10; details: potato dextrose broth pH 3.8, visual evaluation; for MIC: Paecilomyces niveus, read-out: Minimal Inhibitory Concentration (MIC)
[1] = tested on: Corynebacterium xerosis DSM 20743; assay: Antimicrobial activity (MIC), Corynebacterium xerosis DSM 20743; details: DSM20743, potato dextrose broth pH 3.8, visual evaluation, read-out: Minimal Inhibitory Concentration (MIC)
[2] = tested on: Zygosaccharomyces bailli SUN07; assay: Antimicrobial activity (MIC), Zygosaccharomyces bailli SUN07; details: potato dextrose broth pH 3.8, visual evaluation; for MIC: read-out: Minimal Inhibitory Concentration (MIC)
[3] = tested on: Malassezia furfur DSM 6170; assay: Antimicrobial activity (MIC), Malassezia furfur DSM 6170; details: DSM6170, potato dextrose broth pH 3.8, visual evaluation, read-out: Minimal Inhibitory Concentration (MIC)
Penicillium paneum SUN04 = assay: Antimicrobial activity (MIC), Penicillium paneum SUN04; details: potato dextrose broth pH 3.8, visual evaluation; for MIC: read-out: Minimal Inhibitory Concentration (MIC)
[4] = tested on: Lactobacillus paracasei ssp. paracasei DSM 46331; assay: Antimicrobial activity (MIC), Lactobacillus paracasei ssp. paracasei DSM 46331; details: Lacticaseibacillus paracasei, DSM46331, potato dextrose broth pH 3.8, visual evaluation, read-out: Minimal Inhibitory Concentration (MIC)
[5] = tested on: Yarrowia lipolytica DSM 70561; assay: Antimicrobial activity (MIC), Yarrowia lipolytica DSM 70561; details: DSM70561, potato dextrose broth pH 3.8, visual evaluation, read-out: Minimal Inhibitory Concentration (MIC)
[6] = tested on: Dekkera naardenensis CBS 6115; assay: Antimicrobial activity (MIC), Dekkera naardenensis CBS 6115; details: Brettanomyces naardenensis, CBS6115, potato dextrose broth pH 3.8, visual evaluation, read-out: Minimal Inhibitory Concentration (MIC)
[7] = tested on: Zygosaccharomyces bailii DSM 70834; assay: Antimicrobial activity (MIC), Zygosaccharomyces bailii DSM 70834; details: DSM70834, potato dextrose broth pH 3.8, visual evaluation, read-out: Minimal Inhibitory Concentration (MIC)
[8] = tested on: Leuconostoc mesenteroides DSM 20343; assay: Antimicrobial activity (MIC), Leuconostoc mesenteroides DSM 20343; details: DSM20343, potato dextrose broth pH 3.8, visual evaluation, read-out: Minimal Inhibitory Concentration (MIC)
[9] = tested on: Alicyclobacillus acidoterrestris DSM 2498; assay: Antimicrobial activity (MIC), Alicyclobacillus acidoterrestris DSM 2498; details: DSM2498, potato dextrose broth pH 3.8, visual evaluation, read-out: Minimal Inhibitory Concentration (MIC)
Brettanomyces sp SUN08 = assay: Antimicrobial activity (MIC), Brettanomyces sp SUN08; details: potato dextrose broth pH 3.8, visual evaluation; for MIC: read-out: Minimal Inhibitory Concentration (MIC)
Asaia siamensis SUN03 = assay: Antimicrobial activity (MIC), Asaia siamensis SUN03; details: potato dextrose broth pH 3.8, visual evaluation; for MIC: read-out: Minimal Inhibitory Concentration (MIC)
[10] = tested on: Neosartorya fischeri SUN09; assay: Antimicrobial activity (MIC), Neosartorya fischeri SUN09; details: potato dextrose broth pH 3.8, visual evaluation; for MIC: Aspergillus fischeri, read-out: Minimal Inhibitory Concentration (MIC)
[11] = tested on: Saccharomyces cerevisiae SUN06; assay: Antimicrobial activity (MIC), Saccharomyces cerevisiae SUN06; details: potato dextrose broth pH 3.8, visual evaluation; for MIC: read-out: Minimal Inhibitory Concentration (MIC)
[12] = tested on: Bacillus subtilis ATCC 6633; assay: Antimicrobial activity (MIC), Bacillus subtilis ATCC 6633; details: ATCC6633, potato dextrose broth pH 3.8, visual evaluation, read-out: Minimal Inhibitory Concentration (MIC)
[13] = tested on: Byssochlamys fulva DSM 1808; assay: Antimicrobial activity (MIC), Byssochlamys fulva DSM 1808; details: Paecilomyces fulvus, DSM1808, potato dextrose broth pH 3.8, visual evaluation, read-out: Minimal Inhibitory Concentration (MIC)
[14] = tested on: Candida albicans ATCC10231; assay: Antimicrobial activity (MIC), Candida albicans ATCC10231; details: potato dextrose broth pH 3.8, visual evaluation, read-out: Minimal Inhibitory Concentration (MIC)
[15] = tested on: Saccharomyces cerevisiae SUN01; assay: Antimicrobial activity (MIC), Saccharomyces cerevisiae SUN01; details: potato dextrose broth pH 3.8, visual evaluation; for MIC: read-out: Minimal Inhibitory Concentration (MIC)
[16] = tested on: Enterococcus faecalis ATCC 7080; assay: Antimicrobial activity (MIC), Enterococcus faecalis ATCC 7080; details: ATCC7080, potato dextrose broth pH 3.8, visual evaluation, read-out: Minimal Inhibitory Concentration (MIC)
[17] = tested on: Zygosaccharomyces rouxii DSM 7525; assay: Antimicrobial activity (MIC), Zygosaccharomyces rouxii DSM 7525; details: DSM7525, potato dextrose broth pH 3.8, visual evaluation, read-out: Minimal Inhibitory Concentration (MIC)
[18] = tested on: Saccharomyces cerevisiae DSM 2548; assay: Antimicrobial activity (MIC), Saccharomyces cerevisiae DSM 2548; details: DSM2548, potato dextrose broth pH 3.8, visual evaluation, read-out: Minimal Inhibitory Concentration (MIC)
[19] = tested on: Candida parapsilosis SUN05; assay: Antimicrobial activity (MIC), Candida parapsilosis SUN05; details: potato dextrose broth pH 3.8, visual evaluation; for MIC: Lodderomyces parapsilosis, read-out: Minimal Inhibitory Concentration (MIC)
[20] = tested on: Zygosaccharomyces bailli SUN02; assay: Antimicrobial activity (MIC), Zygosaccharomyces bailli SUN02; details: potato dextrose broth pH 3.8, visual evaluation; for MIC: read-out: Minimal Inhibitory Concentration (MIC)
[21] = tested on: Penicillium expansum DSM 62841; assay: Antimicrobial activity (MIC), Penicillium expansum DSM 62841; details: DSM62841, potato dextrose broth pH 3.8, visual evaluation, read-out: Minimal Inhibitory Concentration (MIC)
[22] = tested on: Clostridium sporogenes ATCC19404; assay: Antimicrobial activity (MIC), Clostridium sporogenes ATCC19404; details: potato dextrose broth pH 3.8, visual evaluation, read-out: Minimal Inhibitory Concentration (MIC)
Experimental: Compounds are dissolved at a concentration of 20 mg/mL using 100% DMSO. • Preculture: yeast and bacteria are plated on potato dextrose agar, resuspended in potato dextrose broth and CFU via OD measurement determined; adjusting CFU of the strain in PDB pH 3.8 • Preculture: for mycel forming fungi spores were directly used after thawing of cryopreserved stocks of known titre • Final titre used for the assay: Yeast strains 5*10^3 CFU/ml, Bacteria 1*10^6 CFU/ml, Fungi (spores) 5*10^4 CFU/ml • Potato dextrose broth pH 3.8 was used as assay matrix • 500 ppm (0.05%) of the compounds were screened (final DMSO 2.5% (v/v)) • Volume: 100 μl in 96-well format • Positive controls: potassium sorbate, sodium benzoate & triclosan • 28° C. to 30° C., static incubation • Incubation time depending on spoilage organism between 2 and 8 days • Visual evaluation (per eye, for fungi with binocular magnification)

[23] = tested on: Leuconostoc lactis DSM 20202; assay: Antimicrobial activity (MIC), Leuconostoc lactis DSM 20202; details: DSM20202, potato dextrose broth pH 3.8, visual evaluation, read-out: Minimal Inhibitory Concentration (MIC)

Compound | MIC (Byssochlamys nivea SUN10) | MIC [2] | MIC (Penicillium paneum SUN04) | MIC [9] | MIC (Brettanomyces sp SUN08) | MIC (Asaia siamensis SUN03) | MIC [10] | MIC [11] | MIC [15] | MIC [19] | MIC [20] | Minimal Inhibitory Concentration (MIC) (Byssochlamys nivea SUN10) | Minimal Inhibitory Concentration (MIC) (Penicillium paneum SUN04) | Minimal Inhibitory Concentration (MIC) (Brettanomyces sp SUN08) | Minimal Inhibitory Concentration (MIC) (Asaia siamensis SUN03) | Minimal Inhibitory Concentration (MIC) [10] | Minimal Inhibitory Concentration (MIC) [15] | Minimal Inhibitory Concentration (MIC) [19] | Minimal Inhibitory Concentration (MIC) [20] | Minimal Inhibitory Concentration (MIC) [11] | further results
CCCC(O)CC(=O)O[C@H]1[C@H](O[C@H]2[C@H](O)[C@@H](O)[C@H](OCC(O)CCCCCCCCCCCCC(O)C(=O)O)O[C@@H]2COC(C)=O)O[C@H](CO)[C@@H](O)[C@@H]1O (stereo partly drawn) [NP-018217] | ≤ 31.2 µg/mL | 500 µg/mL (≈ 637 µM) | ≤ 31.2 µg/mL | 240 µg/mL (≈ 306 µM) | ≤ 125 µg/mL | 500 µg/mL (≈ 637 µM) | ≤ 31.2 µg/mL | ≤ 125 µg/mL | ≤ 125 µg/mL | ≤ 125 µg/mL | ≤ 125 µg/mL |  |  |  |  |  |  |  |  |  | MIC [1]: 240 µg/mL (≈ 306 µM); MIC [3]: 80 µg/mL (≈ 102 µM); MIC [4]: 80 µg/mL (≈ 102 µM); MIC [5]: 240 µg/mL (≈ 306 µM); MIC [6]: 240 µg/mL (≈ 306 µM); MIC [7]: 80 µg/mL (≈ 102 µM); MIC [8]: 240 µg/mL (≈ 306 µM); MIC [12]: 600 µg/mL (≈ 764 µM); MIC [13]: 80 µg/mL (≈ 102 µM); MIC [14]: 80 µg/mL (≈ 102 µM); MIC [16]: 240 µg/mL (≈ 306 µM); MIC [17]: 240 µg/mL (≈ 306 µM); MIC [18]: 240 µg/mL (≈ 306 µM); MIC [21]: 240 µg/mL (≈ 306 µM); MIC [22]: 80 µg/mL (≈ 102 µM); MIC [23]: 250 µg/mL (≈ 319 µM)
CCCCCC(O)CC(=O)O[C@@H]1[C@@H](O)[C@H](O[C@H]2[C@H](O)[C@@H](O)[C@H](OCC(O)CCCCCCCCCCCCC(O)C(=O)O)O[C@@H]2COC(C)=O)O[C@H](CO)[C@H]1O (stereo partly drawn) [NP-018218] |  |  |  |  |  |  |  | 500 µg/mL (≈ 615 µM) |  |  |  | inact. | inact. | inact. | inact. | inact. | inact. | inact. | inact. |  | Minimal Inhibitory Concentration (MIC) [2]: inact.
O=C(O)OC[C@H]1O[C@@H](OCC(O)CCCCCCCCCCCCC(O)C(=O)O)[C@H](O)[C@@H](O)[C@@H]1O[C@@H]1O[C@H](CO)[C@@H](O)[C@H](O)[C@H]1O (stereo partly drawn) [NP-018243] | 250 µg/mL (≈ 372 µM) | 250 µg/mL (≈ 372 µM) | ≤ 125 µg/mL |  | 250 µg/mL (≈ 372 µM) |  | ≤ 125 µg/mL | 250 µg/mL (≈ 372 µM) | 250 µg/mL (≈ 372 µM) | 500 µg/mL (≈ 743 µM) | 250 µg/mL (≈ 372 µM) |  |  |  | inact. |  |  |  |  |  | 
O=C(O)OC[C@H]1O[C@@H](OCC(O)CCCCCCCCCCCCC(O)C(=O)O)[C@H](O)[C@@H](O)[C@@H]1O[C@@H]1O[C@H](CO)[C@@H](O)[C@H](OC(=O)CC(O)CCO)[C@H]1O (stereo partly drawn) [NP-018249] |  | 500 µg/mL (≈ 634 µM) |  |  |  |  |  |  | 500 µg/mL (≈ 634 µM) |  | 500 µg/mL (≈ 634 µM) | inact. | inact. | inact. | inact. | inact. |  | inact. |  | inact. | 
O=C(O)CC(O)CCCCCCCCCCCC(O)CO[C@@H]1O[C@H](COC(=O)O)[C@@H](O[C@@H]2O[C@H](CO)[C@@H](O)[C@H](O)[C@H]2O)[C@H](O)[C@H]1O (stereo partly drawn) [NP-018428] |  |  |  |  |  |  | 500 µg/mL (≈ 743 µM) |  |  |  |  | inact. | inact. | inact. | inact. |  | inact. | inact. | inact. | inact. | Minimal Inhibitory Concentration (MIC) [2]: inact.
CCCC(O)CC(=O)OC[C@H]1O[C@@H](O[C@H]2[C@H](O)[C@@H](O)[C@H](OCC(O)CCCCCCCCCCCCC(O)C(=O)O)O[C@@H]2COC(C)=O)[C@H](O)[C@@H](O)[C@@H]1O (stereo partly drawn) [NP-018459] |  | 500 µg/mL (≈ 637 µM) | 500 µg/mL (≈ 637 µM) |  |  |  | 500 µg/mL (≈ 637 µM) |  |  |  |  | inact. |  | inact. | inact. |  | inact. | inact. | inact. | inact. | 
CCCCCC(O)CC(=O)O[C@H]1[C@H](O[C@H]2[C@H](O)[C@@H](O)[C@H](OCC(O)CCCCCCCCCCCCCC(=O)O)O[C@@H]2COC(C)=O)O[C@H](CO)[C@@H](O)[C@@H]1O (stereo partly drawn) [NP-018752] | 500 µg/mL (≈ 627 µM) | 500 µg/mL (≈ 627 µM) |  | 4 µg/mL (≈ 5.02 µM) |  |  |  | 500 µg/mL (≈ 627 µM) |  |  | 500 µg/mL (≈ 627 µM) |  | inact. | inact. | inact. | inact. | inact. | inact. |  |  | 
CCCCCCCC(=O)O[C@H]1[C@H](O[C@H]2[C@H](O)[C@@H](O)[C@H](OCC(O)CCCCCCCCCCCCC(O)C(=O)O)O[C@@H]2COC(C)=O)O[C@H](CO)[C@@H](O)[C@@H]1O (stereo partly drawn) [NP-018753] | ≤ 31.2 µg/mL | ≤ 31.2 µg/mL | 500 µg/mL (≈ 627 µM) |  | 500 µg/mL (≈ 627 µM) | > 500 µg/mL | ≤ 31.2 µg/mL | ≤ 31.2 µg/mL | ≤ 31.2 µg/mL | ≤ 31.2 µg/mL | ≤ 31.2 µg/mL |  |  |  |  |  |  |  |  |  | 
O=C(O)OC[C@H]1O[C@@H](OCC(O)CCCCCCCCCCC/C=C(\O)C(=O)O)[C@H](O)[C@@H](O)[C@@H]1O[C@@H]1O[C@H](CO)[C@@H](O)[C@H](O)[C@H]1OC(=O)CC(O)CCO (stereo partly drawn) [NP-018756] | ≤ 125 µg/mL | 250 µg/mL (≈ 318 µM) | 250 µg/mL (≈ 318 µM) | 16 µg/mL (≈ 20.3 µM) | 250 µg/mL (≈ 318 µM) | > 500 µg/mL | ≤ 125 µg/mL | 250 µg/mL (≈ 318 µM) | 250 µg/mL (≈ 318 µM) | 500 µg/mL (≈ 635 µM) | 250 µg/mL (≈ 318 µM) |  |  |  |  |  |  |  |  |  | MIC [12]: 600 µg/mL (≈ 763 µM); MIC [23]: 600 µg/mL (≈ 763 µM)
